In patent publication US11110105B2, “Compounds, composition and uses thereof for treating cancer” (INSTITUT GUSTAVE ROUSSY, priority 2017, dated 2021):

What was measured:
MCA205 WT tumors = experiment: Tumor challenge, MCA205 WT in immunodeficient Nu/Nu nude mice; assay type: in vivo, mouse; conditions: 18 mg/kg intraperitoneally, days 5, 10 and 15
Experimental: (§1) (A) Experimental settings. Growth of (B) sarcoma MCA205 or (C) melanoma B16F10 cells that both stably express the globin-SL8-intron construct or (D) MCA205 Wild Type (WT) or (E) B16F10 WT cells that were subcutaneously inoculated on the flank of immunocompetent C57BL/6 mice injected intraperitoneally with 12 mg/kg or 18 mg/kg of isoginkgetin at days 5, 10 and 15 after inoculation. Tumor size was assessed every 3 to 4 days until reaching the established ethical endpoints. Each line represents the tumor size in area (mm^2) of 6 mice in each group. Size in area (mm^2) of (F) MCA205 globin-SL8-intron, (G) B16F10 globin-SL8-intron, (H) MCA205 WT or (I) B16F10 WT tumors subcutaneously inoculated on the flank of immunodeficient Nu/Nu Nude mice injected intraperitoneally with 18 mg/kg of isoginkgetin at days 5, 10 and 15 after inoculation. Data are presented at the day before the endpoints are reached.
(§2) Each line represents the tumor size in area (mm^2) of at least 6 mice in each group. The C right panel represents the tumor size at day 27. […]
(§3) Inventors then assessed the requirement of the immune response for isoginkgetin to reduce tumor growth Immunodeficient Nu/Nu nude mice were inoculated subcutaneously with either MCA205 or B16F10 cells that stably express the Globin-intron-SL8 or WT, and were treated with the same settings as previously described (FIG. 9A). […]

[1] = MTT assay on A549 cell line; assay type: cell-based; conditions: human, A549 lung carcinoma cells, read-out: % cell viability (±SEM)
Experimental: (§4) MCA205 mouse sarcoma cell line is cultured at 37° C. under 5% CO2 in RPMI 1640 medium (Life Technologies) in the presence of 1% glutamine, 1% sodium pyruvate, 1% non-essential amino-acids, 1% penicillin/streptomycin and 10% FBS (Life Technologies) under standard conditions. B16F10 mouse melanoma cell line, MRC5 human fibroblast cell line and A375 human melanoma cell line are cultured at 37° C. under 5% CO2 in DMEM medium (Life Technologies) containing 1% glutamine, 1% penicillin/streptomycin and 10% FCS under standard conditions. A549 human lung carcinoma cell line is cultured at 37° C. under 5% CO2 in DMEM/F12+Glutamax I in the presence of 1% Hepes, 1% sodium pyruvate and 10% FBS under standard conditions. Stable MCA205-Globin-SL8-intron cell line are cultured under the same condition as MCA205 cell line with additional 2 mg/ml G418 (geneticin from Life Technologies) for selection. Stable B16F10-Globin-SL8-intron cell line are cultured under the same condition as B16F10 cell line with additional 2 mg/ml G418 (geneticin from Life Technologies) for selection. The SL8/Kb-specific (B3Z) T-cell reporter hybridoma are cultured at 37° C. under 5% CO2 in RPMI 1640 medium (Life Technologies) in the presence of 1% glutamine, 0.1% β-galactosidase, 1% penicillin/streptomycin and 10% FCS under standard conditions. […]

B16F10 WT tumors = experiment: Tumor challenge, B16F10 WT in immunodeficient Nu/Nu nude mice; assay type: in vivo, mouse; conditions: 18 mg/kg intraperitoneally, days 5, 10 and 15
Experimental: as §1, §2, §3

[2] = MTT assay on MRC5 cell line; assay type: cell-based; conditions: human, MRC5 fibroblast cells, read-out: % cell viability (±SEM)
Experimental: as §4

[3] = MTT viability, mouse cell lines (text summary of table 2); assay type: cell-based; conditions: MCA205 sarcoma and B16F10 melanoma cells, MCA205 and B16F10, 6.25-25 μM, read-out: cell viability at efficient doses
Experimental: In parallel, the same experiment was performed on the mouse melanoma B16F10 and sarcoma MCA205 cell lines that were transiently expressing the Globin-SL8-intron construct. […] Efficient doses lead to cell viability over 50% in these cell lines (table 2).
MTT assay on MCA205 and B16F10 cell lines treated with 6.25 μM, 15 μM or 25 μM of isoginkgetin. Dare are given as the mean of the percentage of cell viability ±SEM from at least three independent experiments.

MCA205 WT tumor = experiment: Tumor challenge, MCA205 WT in immunocompetent C57BL/6 mice; assay type: in vivo, mouse; conditions: 18 mg/kg intraperitoneally, days 5, 10 and 15 (FIG. 11D)
Experimental: as §1
(§5) Data are given as mean ±SEM. *P<0.05, **P<0.01, ***P<0.001 (unpaired student t test). […] Tumor size was assessed every 3 to 4 days until reaching the established ethical endpoints. […]
(§6) The SL8 peptide has been widely shown to be highly immunogenic in vivo. […] At days 5, 10 and 15 after tumor inoculation, the mice were injected intraperitoneally with a define dose of isoginkgetin, and the tumor growth was monitored (FIG. 9A). […]

B16F10 WT tumor = experiment: Tumor challenge, B16F10 WT in immunocompetent C57BL/6 mice; assay type: in vivo, mouse; conditions: 18 mg/kg intraperitoneally, days 5, 10 and 15 (FIG. 11D)
Experimental: as §1, §5, §6

[4] = system: H2-K^b molecules at the cell surface of B16F10 cells; experiment: Flow cytometry of H2-K^b expression, B16F10; assay type: cell-based, mouse
Source text: Flow cytometry analyses of H2-K^b expression on MCA205 and B16F10 cells treated with (A) isoginkgetin. Flow cytometry analyses of transiently expressed H2-K^b expression on A375, A549 and MRC5 cells treated with (B) isoginkgetin.

SMILES | tumor growth (MCA205 WT tumors) | viability at 2.5 µM ([1]; A549, 2.5 μM) | viability at 6.25 µM ([1]; A549, 6.25 μM) | tumor growth (B16F10 WT tumors) | viability at 2.5 µM ([2]; MRC5, 2.5 μM) | viability at 6.25 µM ([2]; MRC5, 6.25 μM) | viability [3] | tumor growth (MCA205 WT tumor) | tumor growth (B16F10 WT tumor) | expression of the H2-K^b molecules at the cell surface [4]
COc1ccc(-c2cc(=O)c3c(O)cc(O)c(-c4cc(-c5cc(=O)c6c(O)cc(O)cc6o5)ccc4OC)c3o2)cc1 [Isoginkgetin, isoginkgetin] | No effect | 100% | 84% | No effect | 100% | 100% | > 50% |  |  | 
COc1ccc(-c2cc(=O)c3c(OC)cc(OP(=O)([O-])[O-])c(-c4cc(-c5cc(=O)c6c(OC)cc(OP(=O)([O-])[O-])cc6o5)ccc4OC)c3o2)cc1.[Na+].[Na+].[Na+].[Na+] [IM2P2] |  |  |  |  |  |  |  | did not impact tumor growth | did not impact tumor growth | is not affected
